In patent US20250163168A1, “NOVEL ANTIBODIES AND ANTIBODY CONJUGATES FOR THE TREATMENT OF METABOLIC DISORDERS” (PFIZER INC., priority 2023, published 2025) one finds body weight gain and Kd data, which are given here for one substance.

The test system of experiment [1] is diet induced obese (DIO) hGIPR mice. In words: Body weight gain prevention and food intake in DIO hGIPR mice on high fat diet. In kind it is in vivo, mouse. To be noted: 1 mg/kg s.c. twice a week, 60% high fat diet, compared to IgG control (FIG. 6). From the text: Male hGIPR mice between 18-21 weeks of age were utilized which had been on 60% high fat diet (D12492, Research Diets) for 14 weeks prior to the start of the study and were singly housed, maintained on a 12-hour light/12-hour dark cycle, and received food and water ad libitum. Prior to the start of the study, mice were randomized into each group based on body weight. […] Mice were continued on 60% high fat diet for the duration of the study. In FIG. 2, number of animals per group=10; Data are presented as the mean and error bars are SEM.
To determine statistical significance for the body weight endpoint, a generalized least squares linear model with appropriate fixed effects and correlation and variance structure are used for BW outcomes. All residuals were evaluated for meeting the normality assumption with the Shapiro-Wilks Test and Q-Q Plots and the sphericity and homoscedasticity assumption by the residual plots and Bartlett's test. […]
Male hGIPR mice between 18-21 weeks of age were utilized which had been on 60% high fat diet (D12492, Research Diets) for 14 weeks prior to the start of the study and were singly housed, maintained on a 12 hour light/12 hour dark cycle, and received food and water ad libitum. […] Percent change in body weight at each time point was calculated based on difference from pre-dose weight, and 24 hour food intake was measured during week 3. […]

The target of another experiment is T1, Human GIPR ECD (Homo sapiens, UniProt P48546).
T1 sequence (P48546 with tags, fused parts or gaps): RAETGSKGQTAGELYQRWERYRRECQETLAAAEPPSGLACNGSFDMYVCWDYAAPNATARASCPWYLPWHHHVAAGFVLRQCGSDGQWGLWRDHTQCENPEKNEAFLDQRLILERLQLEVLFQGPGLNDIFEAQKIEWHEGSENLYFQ
In words: Kinetic evaluation of anti-GIPR antibody by surface plasmon resonance (SPR). Further details: made in house. To be noted: SPR at 37° C., captured antibody, 1:1 binding model. Here is the method: Human GIPR ECD (amino acid sequence of SEQ ID NO: 33) was prepared. An anti-human Fc sensor chip was prepared by amine coupling of anti-human IgG antibody (catalog number BR-1008-39, Cytiva) to all flow cells of a carboxymethylated dextran coated sensor chip (CM5) (catalog number BR100530, Cytiva) according to the manufacturer's protocols. The flow cells were activated by injecting a 1:1 mixture of 400 mM 1-Ethyl-3-(3-dimethylaminopropyl) carbodiimide hydrochloride (EDC) and 100 mM N-hydroxysuccinimide (NHS) for 7 minutes at a flow rate of 10 μL/minute. Anti-human IgG antibody was diluted to ˜12.5 μg/mL in 10 mM sodium acetate pH 5.0 and injected over all flow cells for 7 minutes at 10 μL/minute. All flow cells were blocked with 1M ethanolamine-HCl (ETH) for 7 minutes at 10 μL/minute. Final immobilization levels of the capture antibody were approximately 12,000 resonance units (RU). […]
Flow cell 1 was used as a reference surface. […] Rate constants and affinities were determined by fitting the data to a 1:1 binding model in BIAcore™ Insight Evaluation software version 3.0.12 (GE Healthcare).
After antibody capture, dilutions of the human GIPR ECD proteins were flowed over the sensor chip surface and the association rate constant (ka), dissociation rate constant (kd), and KD values were determined for binding to human GIPR ECD (Table 5).

“2G10: fully human monoclonal anti-GIPR antagonist antibody portion of AMG 133 (maridebart cafraglutide); benchmark antibody [reference compound]”: the body weight gain result in experiment [1] is “reduced body weight gain”. Besides, the dissociation constant Kd in the experiment with Human GIPR ECD is 19.2 nM.
